Assay results published in patent US8304446B2, “Compounds” (Glaxo Group Limited, priority 2009, dated 2012).
Structures can show the parent of a compound that is named as a salt.

Key:
CD4+ CCR4+ T cells = test: Chemokine stimulated increases in cellular F-actin content; type: cell-based; settings: Homo sapiens, T-cell, 0.5 h; PBMC from normal volunteers; antagonist 30 min at 37° C. before agonist for 15 sec; F-actin content by flow cytometry; read-out: pA2 (converted)
Method in brief: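 Human PBMC from citrated volunteer blood, stained for CD4 and CCR4, were pre-incubated with antagonist or vehicle (0.1% DMSO) for 30 min at 37 °C, then stimulated with agonist for 15 s and formaldehyde-fixed. F-actin was stained with phalloidin and read by flow cytometry as CD4+CCR4+ MFI relative to CD4+CCR4− cells.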

CCR4 = molecular target: T1, CCR4 (Homo sapiens, UniProt P51679); test: [35S]-GTPγS SPA binding assay for CCR4 antagonist activity; type: biochemical; settings: CCR4 expressing CHO membranes; human MDC at EC80; [35S]-GTPγS competition
T1 construct: expressed in transfected cells; host or cells: CHO cell membranes
T1 sequence (P51679 1-360): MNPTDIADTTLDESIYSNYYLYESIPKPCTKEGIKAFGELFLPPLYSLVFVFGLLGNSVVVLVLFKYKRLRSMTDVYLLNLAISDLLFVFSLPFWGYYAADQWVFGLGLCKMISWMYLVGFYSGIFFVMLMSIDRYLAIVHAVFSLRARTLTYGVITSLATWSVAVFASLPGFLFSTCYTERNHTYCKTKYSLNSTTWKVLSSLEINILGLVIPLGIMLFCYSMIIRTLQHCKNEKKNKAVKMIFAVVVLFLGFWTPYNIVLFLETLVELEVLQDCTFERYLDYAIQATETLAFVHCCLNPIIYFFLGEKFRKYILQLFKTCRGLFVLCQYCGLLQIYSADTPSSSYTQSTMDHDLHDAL
Procedure: [35S]-GTPγS SPA Binding Assays for CCR4 Antagonist Activity
Antagonist potency was determined by a radioligand [35S]-GTPγS competition assay. Briefly, CCR4 expressing CHO membranes were homogenised by passing through a 23G needle. These membranes were then adhered to WGA-coated Leadseeker SPA beads in assay buffer (20 mM HEPES, 10 mM MgCl2, 100 mM NaCl, 0.05% BSA, 40 ug/ml Saponin and pH adjusted to 7.4 using KOH 5M) to generate a 3 μg/well final assay concentration (FAC) membrane and 250 μg/well FAC bead, solution.
The bead/membrane/[35S]-GTPγS/Agonist suspension was dispensed into white Greiner polypropylene 384-well plates (45 μl/well), containing 0.5 μl of compound. […] Plates were then read on a Viewlux instrument and luminescence was then plotted as a percentage of the maximum inhibitional response elicited by an IC100 of a standard antagonist.

Row | SMILES | Kb (CD4+ CCR4+ T cells) [nM] | IC50 (CCR4) [nM]
1 | COc1cccc2c1c(NS(=O)(=O)c1ccc(Cl)s1)nn2Cc1cccc(CNC(=O)C(C)CN)c1 (stereo not shown) [Example 26, 3-Amino-N-[(3-{[3-{[(5-chloro-2-thienyl)sulfonyl]amino}-4-(methyloxy)-1H-indazol-1-yl]methyl}phenyl)methyl]-2-methylpropanamide trifluoroacetate] | ≤ 126 | 3.98 to 15.8
2 | COc1cccc2c1c(NS(=O)(=O)c1ccc(Cl)s1)nn2Cc1cccc(CNC(=O)[C@]2(C)CCCN2)c1 [Example 27, N-[(3-{[3-{[(5-chloro-2-thienyl)sulfonyl]amino}-4-(methyloxy)-1H-indazol-1-yl]methyl}phenyl)methyl]-2-methyl-L-prolinamide trifluoroacetate] | ≤ 126 | 3.98 to 15.8
3 | COc1cccc2c1c(NS(=O)(=O)c1ccc(Cl)s1)nn2Cc1cccc(CNC(=O)[C@@H]2C[C@H](F)CN2)c1 [Example 28, (4S)—N-[(3-{[3-{[(5-chloro-2-thienyl)sulfonyl]amino}-4-(methyloxy)-1H-indazol-1-yl]methyl}phenyl)methyl]-4-fluoro-L-prolinamide trifluoroacetate] | ≤ 126 | 3.98 to 15.8
4 | COc1cccc2c1c(NS(=O)(=O)c1ccc(Cl)s1)nn2Cc1cccc(CNC(=O)c2cn[nH]c2)c1 [Example 33, N-[(3-{[3-{[(5-Chloro-2-thienyl)sulfonyl]amino}-4-(methyloxy)-1H-indazol-1-yl]methyl}phenyl)methyl]-1H-pyrazole-4-carboxamide] | ≤ 126 | 3.98 to 15.8
5 | COc1cccc2c1c(NS(=O)(=O)c1ccc(Cl)s1)nn2Cc1cccc(CNC(=O)C2CCOC2)c1 (stereo not shown) [Example 35, N-[(3-{[3-{[(5-Chloro-2-thienyl)sulfonyl]amino}-4-(methyloxy)-1H-indazol-1-yl]methyl}phenyl)methyl]tetrahydro-3-furancarboxamide] | ≤ 126 | 3.98 to 15.8
6 | COc1cccc2c1c(NS(=O)(=O)c1ccc(Cl)s1)nn2Cc1cccc(CNC(=O)C(C)O)c1 (stereo not shown) [Example 37, N-[(3-{[3-{[(5-Chloro-2-thienyl)sulfonyl]amino}-4-(methyloxy)-1H-indazol-1-yl]methyl}phenyl)methyl]-2-hydroxypropanamide] | ≤ 126 | 3.98 to 15.8
7 | COc1cccc2c1c(NS(=O)(=O)c1ccc(Cl)s1)nn2Cc1cccc(CNC(=O)C2CCOCC2)c1 [Example 43, N-[(3-{[3-{[(5-chloro-2-thienyl)sulfonyl]amino}-4-(methyloxy)-1H-indazol-1-yl]methyl}phenyl)methyl]tetrahydro-2H-pyran-4-carboxamide] | ≤ 126 | 3.98 to 15.8
8 | COc1cccc2c1c(NS(=O)(=O)c1ccc(Cl)s1)nn2Cc1cccc(CNC(=O)[C@@H](N)Cc2cnc[nH]2)c1 [Example 44, N-[(3-{[3-{[(5-Chloro-2-thienyl)sulfonyl]amino}-4-(methyloxy)-1H-indazol-1-yl]methyl}phenyl)methyl]-L-histidinamide] | ≤ 126 | 3.98 to 15.8
9 | COc1cccc2c1c(NS(=O)(=O)c1ccc(Cl)s1)nn2Cc1cccc(CNC(=O)[C@H](N)C(C)C)c1 [Example 48, N^1-[(3-{[3-{[(5-Chloro-2-thienyl)sulfonyl]amino}-4-(methyloxy)-1H-indazol-1-yl]methyl}phenyl)methyl]-D-valinamide] | ≤ 126 | 3.98 to 15.8
10 | COc1cccc2c1c(NS(=O)(=O)c1ccc(Cl)s1)nn2Cc1cccc(CNC(=O)[C@@H]2CCCCN2)c1 [Example 51, (2S)—N-[(3-{[3-{[(5-Chloro-2-thienyl)sulfonyl]amino}-4-(methyloxy)-1H-indazol-1-yl]methyl}phenyl)methyl]-2-piperidinecarboxamide trifluoroacetate] | ≤ 126 | 3.98 to 15.8
11 | COc1cccc2c1c(NS(=O)(=O)c1ccc(Cl)s1)nn2Cc1cccc(CNC(=O)[C@@H]2C[C@@H](F)CN2)c1 [Example 52, (4R)—N-[(3-{[3-{[(5-Chloro-2-thienyl)sulfonyl]amino}-4-(methyloxy)-1H-indazol-1-yl]methyl}phenyl)methyl]-4-fluoro-L-prolinamide trifluoroacetate] | ≤ 126 | 3.98 to 15.8
12 | COc1cccc2c1c(NS(=O)(=O)c1ccc(Cl)s1)nn2Cc1cccc(CNC(=O)[C@H]2CC(F)(F)CN2)c1 [Example 55, N-[(3-{[3-{[(5-Chloro-2-thienyl)sulfonyl]amino}-4-(methyloxy)-1H-indazol-1-yl]methyl}phenyl)methyl]-4,4-difluoro-D-prolinamide trifluoroacetate] | ≤ 126 | 3.98 to 15.8
13 | COc1cccc2c1c(NS(=O)(=O)c1ccc(Cl)s1)nn2Cc1cccc(CNC(=O)C(C)(C)O)c1 [Example 57, N-[(3-{[3-{[(5-Chloro-2-thienyl)sulfonyl]amino}-4-(methyloxy)-1H-indazol-1-yl]methyl}phenyl)methyl]-2-hydroxy-2-methylpropanamide] | ≤ 126 | 3.98 to 15.8
14 | NC(=O)c1cccc(Cn2nc(NS(=O)(=O)c3ccc(Cl)s3)c3c(O)cccc32)c1 [Example 70, 3-[(3-{[(5-Chloro-2-thienyl)sulfonyl]amino}-4-hydroxy-1H-indazol-1-yl)methyl]benzamide] | ≤ 126 | 3.98 to 15.8
15 | CN[C@H](C)C(=O)NCc1cccc(Cn2nc(NS(=O)(=O)c3ccc(Cl)s3)c3c(O)cccc32)c1 [Example 71, N^1-({3-[(3-{[(5-Chloro-2-thienyl)sulfonyl]amino}-4-hydroxy-1H-indazol-1-yl)methyl]phenyl}methyl)-N^2-methyl-D-alaninamide formic acid salt] | ≤ 126 | 3.98 to 15.8
16 | CC(=O)NCc1cccc(Cn2nc(NS(=O)(=O)c3ccc(Cl)s3)c3c(O)cccc32)c1 [Example 72, N-({3-[(3-{[(5-Chloro-2-thienyl)sulfonyl]amino}-4-hydroxy-1H-indazol-1-yl)methyl]phenyl}methyl)acetamide] | ≤ 126 | 3.98 to 15.8
17 | O=C(NCc1cccc(Cn2nc(NS(=O)(=O)c3ccc(Cl)s3)c3c(O)cccc32)c1)C1COCCN1 (stereo not shown) [Example 73, N-({3-[(3-{[(5-Chloro-2-thienyl)sulfonyl]amino}-4-hydroxy-1H-indazol-1-yl)methyl]phenyl}methyl)-3-morpholinecarboxamide formate salt] | ≤ 126 | 3.98 to 15.8
